Columns and labels:
Type in all cases: cell-based, mouse
[1] = tested on: CD8+ T cells; assay: IFNγ ELISPOT, ZIKV-infected Ifnar-/- HLA-B*0702 transgenic mice; conditions: HLA-B*0702 mice; for SFC/10^6 CD8+ T cells, FSS13025: 7 days after 1×10^2 FFU ZIKV FSS13025; for SFC/10^6 CD8+ T cells, MR766: 7 days after 1×10^2 FFU ZIKV MR766; for immunodominance in IFNγ ELISPOT: immunodominant: >500 SFCs/10^6 CD8+ T cells, shared by both ZIKV strains
Protocol: (§1) Two ZIKV strains, MR766 (Uganda, 1947) and FSS13025 (Cambodia, 2010), were obtained from the World Reference Center for Emerging Viruses and Arboviruses (WRCEVA). The mouse-adapted DENV2 strain S221 is a triple-plaque purified clone derived from DENV2 D2S1038. Both ZIKV and DENV2 were amplified in C6/36 mosquito cells, and viral titers were measured using baby hamster kidney (BHK)-21 cell-based focus forming assay (FFA). For epitope screening, 5-week old mice (female or male) were infected retro-orbitally (R.O.) with either 1×102 FFU of ZIKV FSS13025 or ZIKV MR766, or 2×10^4 FFU of DENV2 S221 in 200 μl 10% FBS/PBS. Seven days after infection, CD8^+ T cells were isolated from splenocytes and used for ELISPOT assay, while the splenocytes were directly used for ICS assay. Additionally, 5-week old mice were inoculated I.P. with 2×10^3 FFU of DENV2 S221 for 4 weeks.
(§2) CD8^+ T cells were isolated from splenocytes using magnetic bead positive selection (Miltenyi Biotec, Germany) 7 days after virus infection. 2×10^5 CD8^+ T cells were stimulated with 1×10^5 LPS-blasts loaded with 10 μg of individual peptide in 96-well flat-bottom plates (IMMOBILON™-P; Millipore, Bedford, Mass.) that were coated with anti-IFNγ mAb (clone AN18; Mabtech, Stockholm, Sweden) in triplicate. Concanavalin A (ConA) was used as positive control. After 20 hours of incubation, biotinylated anti-mouse IFNγ mAb (R4-6A2; Mabtech), followed by ABC peroxidase (Vector Laboratories, Burlingame, Calif., USA) and then 3-amino-9-ethylcarbazole (Sigma-Aldrich, St. Louis, Mo., USA) were added into the wells. […] A peptide inducing a magnitude of >500 SFCs/10^6 CD8^+ T cells was considered as an immunodominant peptide.
Two independent experiments performed in triplicate were averaged and the error bars represent the SEM. The data are expressed as the mean number of spot forming cells (SFC) per 10^6 CD8^+ T cells. The criteria for positivity were net SFC per 10^6 cells of >20, and a stimulation index of >2.0 when compared with the negative control. Dotted lines represent the cutoff value. * Indicates a positive response. […] ConA denotes Concanavalin A.

[2] = tested on: CD44+CD62L- CD8+ T cells; assay: ICS, peptide-immunized Ifnar-/- HLA-B*0702 mice challenged with ZIKV; conditions: mice immunized with the 3 ZIKV immunodominant epitopes, day 3 after ZIKV challenge
From the text: Two HLA-B*0702-binding ZIKV-specific peptides (FSS-NS2A133-141(SEQ ID NO: 41) and FSS/MR766-NS2B68-75 (SEQ ID NO: 45)) and four ZIKV/DENV cross-reactive peptides (FSS/MR766-NS4B426-435 (SEQ ID NO: 60), FSS/MR766-NS2A75-84 (SEQ ID NO: 39), FSS/MR766-NS3206-215 (SEQ ID NO: 47), and FSS/MR766-NS3574-582 (SEQ ID NO: 52)) were chosen for synthesis. Five HLA-A*0101-binding peptides (FSS/MR-E159-167 (SEQ ID NO: 70), FSS/MR-E195-203 (SEQ ID NO: 71), FSS/MR-NS123-31 (SEQ ID NO: 74), FSS/MR-NS4B231-239 (SEQ ID NO: 77), and FSS/MR-NS5509-517 (SEQ ID NO: 79)) were chosen for synthesis. Mice (both female and male; 5-6 weeks of age) were immunized subcutaneously with a mixture of HCV helper peptide (100 μg/mouse) and 3 or 4 HLA-B*0702-binding peptides (50 μg/peptide/mouse) emulsified in Complete Freund's Adjuvant (CFA). Mock group mice received the same immunization strategy but without any ZIKV-specific or ZIKV/DENV cross-reactive peptide. On the 21st day, mice were boosted with the same peptide mixtures emulsified in Incomplete Freund's Adjuvant (IFA). […] Three days post ZIKV infection mice were sacrificed, and serum and spleen were harvested. The splenocytes were used for ICS assay. After cardiac perfusion with PBS, brain was harvested. The levels of infectious ZIKV in serum and brain were measured using FFA.
(§3) Spleens were harvested from virus-infected, mock-immunized, or peptide-immunized mice. 1×10^6 splenocytes were plated in each well of 96-well U-bottom plates and stimulated with individual peptide (10 μg crude peptide or 1 μg pure peptide per well) for 6 hours. Five hours before the end of incubation, Brefeldin A (GolgiPlug; BD Biosciences) and PE-conjugated anti CD107a mAb (clone 1D4B, eBioscience) were added to the cells. Splenocytes stimulated with PMA-ionomycin were used as the positive control, while cells without any stimulation were the negative control. […] Samples were run using an LSR™ II (BD Biosciences) and analyzed using FLOWJO™ software X 10.0.7 (Tree Star, Ashland, Oreg.).
Peptide groups received corresponding peptide immunizations as described in Materials and Methods. […] CD3^+CD8^+CD44^+CD62L− T cells were gated and the percentages of IFNγ^+ and/or TNFα^+ cells in a representative mouse from mock (FIG. 12A) and peptide (FIG. 12B) groups were determined by ICS. The levels of infectious ZIKV in sera and brains were measured via FFA. Data were expressed as mean±SEM. *, P<0.05; **, P<0.01; ***, P<0.001. Two-tailed Mann-Whitney test.

[3] = tested on: CD3+CD8+ T cells; assay: IFNγ ICS, ZIKV-infected Ifnar-/- HLA-B*0702 transgenic mice; conditions: for % IFNγ+ CD8+ T cells, FSS13025 / % IFNγ+ CD8+ T cells, MR766: HLA-B*0702 mice; for % IFNγ+ CD8+ T cells, FSS13025: 7 days after ZIKV FSS13025, ICS; for % IFNγ+ CD8+ T cells, MR766: 7 days after ZIKV MR766, ICS
Protocol: as §1, §3
Data represent the average of two independent experiments and are expressed as mean±SEM. *, P<0.05; **, P<0.01; Two-tailed Mann-Whitney test. P/I denotes PMA/ionomycin.

[4] = tested on: CD8+ T cells; assay: IFNγ ELISPOT, DENV2 S221-infected Ifnar-/- HLA-B*0702 transgenic mice; conditions: HLA-B*0702 mice, 7 days after 2×10^4 FFU DENV2 S221
Protocol: as §1, §2
(§4) The following results are with respect to FIG. 14A and FIG. 14B, where Ifnar^−/− HLA-B*0702 transgenic mice were infected R.O. with 2×10^4 FFU of DENV2 strain S221 for 7 days. CD8^+ T cells isolated from splenocytes were stimulated with each of the 37 ZIKV epitopes identified via IFNγELISPOT to perform (FIG. 14A) IFNγELISPOT and (FIG. 14B) ICS assay. Data represent the average of two independent IFNγELISPOT experiments and two independent ICS experiments (n=7 mice) and are expressed as mean±SEM. Dotted line corresponds to the cutoff value. *, P<0.05.

[5] = tested on: CD8+ T cells; assay: IFNγ ICS, DENV2 S221-infected Ifnar-/- HLA-B*0702 transgenic mice; conditions: HLA-B*0702 mice, 7 days after DENV2 S221, ICS
Protocol: as §1, §3, §4

VPRTDNITL [FSS-NS2A133-141]
SFC/10^6 CD8+ T cells, FSS13025 [1]: 786 SFC/10^6 CD8+ T cells | SFC/10^6 CD8+ T cells, MR766 [1]: 1182 SFC/10^6 CD8+ T cells | immunodominance in IFNγ ELISPOT [1]: immunodominant | percentage of IFNγ-producing cells among antigen experienced (CD44+CD62L-) CD8+ T cells [2]: 0.86%±0.71 | % IFNγ+ CD8+ T cells, FSS13025 [3]: (0.9%) | % IFNγ+ CD8+ T cells, MR766 [3]: (1.07%)

SPNKYVVNSSTA [FSS/MR-NS4B210-220]
SFC/10^6 CD8+ T cells, MR766 [1]: 195 SFC/10^6 CD8+ T cells | SFC/10^6 CD8+ T cells, S221 [4]: 49 SFC/10^6 CD8+ T cells

RPRVCTKEEF [FSS/MR-NS5140-149]
SFC/10^6 CD8+ T cells, FSS13025 [1]: 162 SFC/10^6 CD8+ T cells | SFC/10^6 CD8+ T cells, MR766 [1]: 311 SFC/10^6 CD8+ T cells | % IFNγ+ CD8+ T cells, S221 [5]: 0.28% | % IFNγ+ CD8+ T cells, MR766 [3]: (0.24%)

RVCSDHAAL [FSS/MR-NS3581-589]
SFC/10^6 CD8+ T cells, MR766 [1]: 411 SFC/10^6 CD8+ T cells | SFC/10^6 CD8+ T cells, S221 [4]: 44 SFC/10^6 CD8+ T cells | % IFNγ+ CD8+ T cells, MR766 [3]: (0.31%)

TPRESMLLAL [FSS/MR-NS2A89-99]
SFC/10^6 CD8+ T cells, FSS13025 [1]: 807 SFC/10^6 CD8+ T cells | SFC/10^6 CD8+ T cells, MR766 [1]: 823 SFC/10^6 CD8+ T cells | immunodominance in IFNγ ELISPOT [1]: immunodominant | SFC/10^6 CD8+ T cells, S221 [4]: 55 SFC/10^6 CD8+ T cells | % IFNγ+ CD8+ T cells, FSS13025 [3]: (0.56%) | % IFNγ+ CD8+ T cells, MR766 [3]: (0.95%) | simultaneous IFNγ and TNFα secretion by peptide-stimulated CD8+ T cells ([3]; mice infected with either ZIKV FSS13025 or ZIKV MR766): simultaneously secreted both IFNγ and TNFα

GPMPVTHASA [FSS/MR-NS3427-436]
SFC/10^6 CD8+ T cells, FSS13025 [1]: 140 SFC/10^6 CD8+ T cells | SFC/10^6 CD8+ T cells, MR766 [1]: 204 SFC/10^6 CD8+ T cells | SFC/10^6 CD8+ T cells, S221 [4]: 136 SFC/10^6 CD8+ T cells

From patent publication US11806393B2, “Flavivirus peptide sequences, epitopes, and methods and uses thereof” (priority 2017, dated 2023)
